This is an account of results in patent US8101621B2, “Aminopyridine derivatives having aurora a selective inhibitory action” (MSD K.K., priority 2006, dated 2012).

pIC50: −log10 of the molar value.

Assay [1] has as its target T1, Aurora A (Homo sapiens, UniProt O14965).
T1 construct: histidine tag (N); made in house; host or cells: Escherichia coli BL21-CodonPlus (DE3)-RIL
T1 sequence (O14965 1-403): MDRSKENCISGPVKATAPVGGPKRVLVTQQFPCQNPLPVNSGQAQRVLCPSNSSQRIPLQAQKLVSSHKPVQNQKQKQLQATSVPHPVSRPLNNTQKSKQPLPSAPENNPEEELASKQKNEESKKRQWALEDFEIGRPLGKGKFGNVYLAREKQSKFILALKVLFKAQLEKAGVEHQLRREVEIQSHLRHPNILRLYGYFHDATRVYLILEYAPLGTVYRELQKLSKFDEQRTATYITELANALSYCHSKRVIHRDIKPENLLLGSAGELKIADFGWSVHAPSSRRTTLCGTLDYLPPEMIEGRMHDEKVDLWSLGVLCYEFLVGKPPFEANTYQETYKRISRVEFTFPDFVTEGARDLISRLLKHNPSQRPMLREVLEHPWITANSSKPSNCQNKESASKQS
Briefly: Aurora A inhibitory action (Kemptide substrate, [γ-33P]ATP, 20 μM ATP). In kind it is biochemical. The conditions noted are these: 30° C., 20 minutes. The text has this:
cDNA of Aurora A having histidine tag fused at the amino terminal was integrated into an expression vector, which was then highly expressed in Escherichia coli BL21-CodonPlus (DE3)-RIL cells. The Escherichia coli cells were recovered and solubilized, and then the histidine-tagged Aurora A protein was adsorbed onto a nickel chelate column and eluted from the column with imidazole. The active fraction was desalted with a desalting column to give a pure enzyme.
For measurement of the activity of Aurora A, the substrate used was Kemptide (Leu-Arg-Arg-Ala-Ser-Leu-Gly) (SEQ.ID.NO.: 1), a synthetic peptide purchased from Sigma-Aldrich, Inc. [Certificate of analysis (Upstate, Inc.)].
Reaction was conducted by a partial modification of a method by Upstate, Inc. [Kinase Profiler™ Assay Protocols]. The amount of the reaction liquid was 21.1 μL, and the composition of the reaction buffer (R2 buffer) was 50 mM Tris-hydrochloride buffer (pH 7.4)/15 mM magnesium acetate/0.2 mM ethylenediamine-N,N,N′,N′-tetraacetate (EDTA). To this, purified Aurora A, 100 μM of a substrate peptide, 20 μM of unlabeled adenosine triphosphate (ATP) and 0.5 μCi of [γ-^33P] labeled ATP (2,500 Ci/mmole or more) were added, and the mixture was reacted at 30° C. for 20 minutes. Then, 10 μL of 350 mM phosphate buffer was added to the reaction system to stop the reaction. The substrate peptide was adsorbed on a P81 paper filter 96-well plate and then washed with 130 mM phosphate buffer for several times. The radiation activity of the peptide was measured with a liquid scintillation counter. The [γ-^33P] labeled ATP was purchased from Amersham Biosciences Co., Ltd.
(§1) The compound to be tested was added to the reaction system such that a dilution series of the compound in dimethylsulfoxide was first prepared, and 1.1 μL of this solution was added. A control was provided by adding 1.1 μL of DMSO to the reaction system.

Assay [2] has as its target T2, Aurora B (Homo sapiens, UniProt Q96GD4).
T2 construct: histidine tag (N); made in house; host or cells: Escherichia coli BL21-CodonPlus (DE3)-RIL
Put plainly: Aurora B inhibitory action (Kemptide substrate, [γ-33P]ATP, 100 μM ATP). It is filed as biochemical. The conditions noted are these: 30° C., 20 minutes.
Description: cDNA of Aurora B having histidine tag fused at the amino terminal was integrated into an expression vector, which was then highly expressed in Escherichia coli BL21-CodonPlus (DE3)-RIL cells. The Escherichia coli cells were recovered and solubilized, and then the histidine-tagged Aurora A protein was adsorbed onto a nickel chelate column and eluted from the column with imidazole. The active fraction was desalted with a desalting column to give a pure enzyme.
For measurement of the activity of Aurora B, the substrate used was Kemptide (Leu-Arg-Arg-Ala-Ser-Leu-Gly) (SEQ.ID.NO.: 1), a synthetic peptide purchased from Sigma-Aldrich, Inc. [Certificate of analysis (Upstate, Inc.)].
Reaction was conducted by a partial modification of the method of activity measurement for Aurora A. The amount of the reaction liquid was 21.1 μL, and the composition of the reaction buffer (R2 buffer) was 50 mM Tris-hydrochloride buffer (pH 7.4)/15 mM magnesium acetate/0.2 mM ethylenediamine-N,N,N′,N′-tetraacetate (EDTA). To this, purified Aurora B, 100 μM of a substrate peptide, 100 μM of unlabeled adenosine triphosphate (ATP) and 1 μCi of [γ-^33P] labeled ATP (2,500 Ci/mmole or more) were added, and the mixture was reacted at 30° C. for 20 minutes. Then, 10 μL of 350 mM phosphate buffer was added to the reaction system to stop the reaction. The substrate peptide was adsorbed on a P81 paper filter 96-well plate and then washed with 130 mM phosphate buffer for several times. The radiation activity of the peptide was measured with a liquid scintillation counter. The [γ-^33P] labeled ATP was purchased from Amersham Biosciences Co., Ltd.
as §1

The test system of assay [3] is Human cervical cancer cells (HeLa S3). Put plainly: Cell growth inhibitory effect, WST-8 method. It is filed as cell-based. The conditions noted are these: 72 h, HeLa S3, three days incubation. The protocol: Fetal calf serum (FCS) was purchased from Moregate Biotech, and DMEM medium was purchased from Invitrogen Corp. WST-8 was purchased from Kishida Chemical Co., Ltd.
(§2) Human cervical cancer cells (HeLa S3) were obtained from the American Type Culture Collection (ATCC).
Cells were suspended in a DMEM medium containing 10% FCS, and the cell suspension was dispensed to a 96-well plastic plate at a rate of 750 cells/100 microliters per well. The plate was incubated overnight in 5% CO2-95% air at 37° C. A drug was subjected to graded dilution in dimethylsulfoxide and further diluted with a DMEM medium containing 10% FCS. Then, the dilution was dispensed to the plate on which cells had been disseminated, at a rate of 100 microliters per well. The plate was incubated for further three days in 5% CO2-95% air at 37° C. Cell growth after incubation was measured by the WST-8 method (H. Tominaga, et al., Anal. Commun., 36, 47-50 (1999)). Here, the WST-8 method refers to a method in which 20 microliters of a WST-8 reagent solution is added to each well, incubation is conducted at 37° C. for 45 minutes, the plate is stirred, and the amount of formazan produced is measured by a calorimetric method to determine the inhibitory rate of the drug. The concentration for 50% growth inhibition (EC50, μM) of the compound was determined.
On the technique in general: Tetrazolium dyes change colour on reduction, which living cells bring about.

Assay [4] shares this test system. Put plainly: Effect by combined use with paclitaxel in cells, WST-8 method. It is filed as cell-based. Particulars: three days, DMSO = 0%. How it is done:
Fetal calf serum (FCS) was purchased from Moregate Biotech, DMEM medium from Invitrogen Corp., paclitaxel (tradename: Taxol) from Sigma-Aldrich, Inc., and WST-8 from Kishida Chemical Co., Ltd.
as §2
Cells were suspended in a DMEM medium containing 10% FCS, and the cell suspension was dispensed to two 96-well plastic plates at a rate of 750 cells/100 microliters per well. The plates were incubated overnight in 5% CO2-95% air at 37° C. A drug was subjected to graded dilution in dimethylsulfoxide and further diluted with […] a DMEM medium containing 10% FCS and also containing 2 nM paclitaxel. Then, the dilutions were each dispensed to one of the plates on which cells had been disseminated, at a rate of 100 microliters per well. The final concentration of paclitaxel at this stage was 1 nM. Also, the concentrations in the case of sole administration of the compound according to the invention were 0.03, 0.1, 0.3, 1 and 3 μM. The plates were incubated for further three days in 5% CO2-95% air at 37° C. Cell growth after incubation was measured by the WST-8 method (H. Tominaga, et al., Anal. Commun., 36, 47-50 (1999)). Here, the WST-8 method refers to a method in which 20 microliters of a WST-8 reagent solution is added to each well, incubation is conducted at 37° C. for 45 minutes, the plate is stirred, and the amount of formazan produced is measured by a colorimetric method to determine the inhibitory rate of the drug. The growth inhibitory effects of paclitaxel and of the compound according to the invention were determined, with the value obtained in sole treatment of DMSO being defined as 0%.

T2 sequence (Q96GD4 whole entry): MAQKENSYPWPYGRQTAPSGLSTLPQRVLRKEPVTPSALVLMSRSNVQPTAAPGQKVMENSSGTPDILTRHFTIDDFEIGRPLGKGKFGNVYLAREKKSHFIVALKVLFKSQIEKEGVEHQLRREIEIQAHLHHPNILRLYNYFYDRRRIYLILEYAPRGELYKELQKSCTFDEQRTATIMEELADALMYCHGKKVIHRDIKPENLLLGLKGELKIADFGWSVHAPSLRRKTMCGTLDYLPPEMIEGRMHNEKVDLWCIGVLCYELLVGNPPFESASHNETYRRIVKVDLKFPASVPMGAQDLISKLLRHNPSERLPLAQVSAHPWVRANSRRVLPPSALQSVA

Turning to `CN(C)C(=O)c1cc(CN2C[C@@H]3C[C@H]2CN3C(=O)c2cccc(Cl)c2F)nc(Nc2nccs2)c1` [Example 21, 2-(((1S,4S)-5-(3-chloro-2-fluorobenzoyl)-2,5-diazabicyclo[2.2.1]hept-2-yl)methyl)-N,N-dimethyl-6-(1,3-thiazol-2-ylamino)isonicotinamide], the pIC50 (in general, the negative decadic logarithm of the IC50, by convention in mol/L) in assay [1] was 8.89; in assay [2], 6.59; in assay [3] it was 6.17. In assay [4] (HeLa S3, compound 0.1 μM + paclitaxel 1 nM), the “Cell growth inhibitory effect by combined administration of paclitaxel and the compound of Example (%)” value is 81.3%. The inhibition at 0.1 µM in assay [4] (Homo sapiens, HeLa S3, 72 h, HeLa S3, compound 0.1 μM alone, read-out: Cell growth inhibitory effect by sole administration of the compound of Example (%)) worked out at 14.9%.
